Data published in ChEMBL document CHEMBL1139118, “A novel, non-substrate-based series of glycine type 1 transporter inhibitors derived from high-throughput screening” (Bioorg Med Chem Lett, 2007).

What was measured:
[1] = target: T1, Sodium- and chloride-dependent glycine transporter 1 (Homo sapiens, UniProt P48067); assay: Displacement of [3H]NPTS from human GlyT1C expressed in HEK293 cells; assay type: cell-based
T1 sequence (P48067 whole entry): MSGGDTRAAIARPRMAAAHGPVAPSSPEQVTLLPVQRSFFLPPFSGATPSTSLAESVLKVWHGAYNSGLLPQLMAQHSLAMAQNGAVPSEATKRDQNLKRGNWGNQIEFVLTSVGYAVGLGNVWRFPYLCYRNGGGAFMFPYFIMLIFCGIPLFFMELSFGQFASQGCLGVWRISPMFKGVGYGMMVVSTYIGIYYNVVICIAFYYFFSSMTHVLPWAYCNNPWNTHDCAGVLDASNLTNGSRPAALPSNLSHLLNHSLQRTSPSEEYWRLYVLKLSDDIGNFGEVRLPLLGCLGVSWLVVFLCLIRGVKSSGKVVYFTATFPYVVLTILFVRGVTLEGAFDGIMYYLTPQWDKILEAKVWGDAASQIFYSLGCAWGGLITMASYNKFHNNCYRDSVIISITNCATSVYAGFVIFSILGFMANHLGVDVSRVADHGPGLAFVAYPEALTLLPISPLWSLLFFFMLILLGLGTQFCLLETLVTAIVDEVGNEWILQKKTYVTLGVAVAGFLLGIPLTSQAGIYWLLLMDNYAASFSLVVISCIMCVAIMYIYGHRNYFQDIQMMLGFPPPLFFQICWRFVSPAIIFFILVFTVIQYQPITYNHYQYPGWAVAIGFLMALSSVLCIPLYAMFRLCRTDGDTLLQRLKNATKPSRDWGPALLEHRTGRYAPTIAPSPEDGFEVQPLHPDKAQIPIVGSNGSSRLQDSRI

CYP2D6 = CYP2D6 (Homo sapiens, UniProt P10635); assay: Inhibition of human recombinant CYP2D6 at 1.5 uM; assay type: ADME
Sequence of CYP2D6 (P10635 whole entry): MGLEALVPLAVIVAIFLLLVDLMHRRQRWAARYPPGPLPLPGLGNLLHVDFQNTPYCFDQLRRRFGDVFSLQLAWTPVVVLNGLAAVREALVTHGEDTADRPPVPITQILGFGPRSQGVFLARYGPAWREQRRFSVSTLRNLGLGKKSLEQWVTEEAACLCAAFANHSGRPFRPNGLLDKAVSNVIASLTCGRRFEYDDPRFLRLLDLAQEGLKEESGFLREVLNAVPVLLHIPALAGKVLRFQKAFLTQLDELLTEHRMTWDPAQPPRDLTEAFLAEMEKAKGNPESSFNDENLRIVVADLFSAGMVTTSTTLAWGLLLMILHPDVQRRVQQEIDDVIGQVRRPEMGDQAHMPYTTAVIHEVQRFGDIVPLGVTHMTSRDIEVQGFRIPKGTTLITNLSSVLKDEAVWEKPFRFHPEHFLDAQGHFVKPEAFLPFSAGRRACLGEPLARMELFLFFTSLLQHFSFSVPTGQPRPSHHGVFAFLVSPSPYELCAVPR

[2] = target: 5-hydroxytryptamine receptor 1B (Homo sapiens, UniProt P28222); assay: Displacement of [3H]5-hydroxytrytamine from human 5HT1B receptor expressed in HEK293 cells; assay type: cell-based
Sequence of 5-hydroxytryptamine receptor 1B (P28222 whole entry): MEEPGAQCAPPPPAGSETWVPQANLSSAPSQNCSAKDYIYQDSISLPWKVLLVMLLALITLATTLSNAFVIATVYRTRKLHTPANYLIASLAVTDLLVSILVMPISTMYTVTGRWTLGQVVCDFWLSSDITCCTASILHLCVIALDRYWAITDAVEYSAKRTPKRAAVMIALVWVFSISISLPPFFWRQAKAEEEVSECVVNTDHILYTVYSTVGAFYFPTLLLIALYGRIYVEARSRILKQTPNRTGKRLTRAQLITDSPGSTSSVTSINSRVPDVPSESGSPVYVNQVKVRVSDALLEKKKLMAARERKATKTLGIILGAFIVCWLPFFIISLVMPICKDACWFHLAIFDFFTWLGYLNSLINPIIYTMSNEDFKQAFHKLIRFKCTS

[3] = target: Voltage-gated inwardly rectifying potassium channel KCNH2 (Homo sapiens, UniProt Q12809); assay: Displacement of [3H]dofetilide from human ERG channel expressed in HEK293 cells
Sequence of Voltage-gated inwardly rectifying potassium channel KCNH2 (Q12809 whole entry): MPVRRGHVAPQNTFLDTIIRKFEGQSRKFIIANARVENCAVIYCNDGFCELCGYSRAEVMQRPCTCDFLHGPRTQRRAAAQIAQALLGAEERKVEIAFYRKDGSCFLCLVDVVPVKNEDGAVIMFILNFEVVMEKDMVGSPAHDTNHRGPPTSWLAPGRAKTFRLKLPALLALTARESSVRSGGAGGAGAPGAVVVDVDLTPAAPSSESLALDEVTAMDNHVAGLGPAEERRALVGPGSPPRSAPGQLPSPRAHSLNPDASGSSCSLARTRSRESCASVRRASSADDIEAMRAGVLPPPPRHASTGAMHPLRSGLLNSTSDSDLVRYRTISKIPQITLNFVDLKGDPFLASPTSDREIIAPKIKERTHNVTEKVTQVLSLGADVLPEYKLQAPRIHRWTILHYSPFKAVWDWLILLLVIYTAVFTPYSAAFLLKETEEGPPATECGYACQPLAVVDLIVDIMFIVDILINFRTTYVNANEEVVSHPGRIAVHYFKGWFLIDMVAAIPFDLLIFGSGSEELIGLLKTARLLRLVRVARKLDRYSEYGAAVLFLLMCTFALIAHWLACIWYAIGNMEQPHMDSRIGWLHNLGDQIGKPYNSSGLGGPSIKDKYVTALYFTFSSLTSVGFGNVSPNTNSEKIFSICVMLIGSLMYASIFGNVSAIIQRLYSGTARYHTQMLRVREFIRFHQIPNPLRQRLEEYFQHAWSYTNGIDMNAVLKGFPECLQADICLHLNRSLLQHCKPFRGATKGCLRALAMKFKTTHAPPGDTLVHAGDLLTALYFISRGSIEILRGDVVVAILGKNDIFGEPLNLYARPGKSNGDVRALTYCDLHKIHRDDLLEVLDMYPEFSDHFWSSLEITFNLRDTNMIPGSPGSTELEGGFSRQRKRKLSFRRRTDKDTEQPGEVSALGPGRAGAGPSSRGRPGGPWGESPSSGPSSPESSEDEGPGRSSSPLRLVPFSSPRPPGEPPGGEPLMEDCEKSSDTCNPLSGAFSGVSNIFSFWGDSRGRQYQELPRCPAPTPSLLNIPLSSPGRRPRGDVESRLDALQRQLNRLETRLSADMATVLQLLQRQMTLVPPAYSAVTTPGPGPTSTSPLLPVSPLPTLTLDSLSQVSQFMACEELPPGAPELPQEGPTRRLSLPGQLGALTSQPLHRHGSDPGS

[4] = Metabolic stability in human liver microsomes assessed as half life; assay type: ADME, Microsome
[5] = target: T2, Sodium- and chloride-dependent glycine transporter 2 (Homo sapiens, UniProt Q9Y345); assay: Inhibition of [3H]glycine uptake at human GlyT2 expressed in HEK293 cells; assay type: cell-based
T2 sequence (Q9Y345 whole entry): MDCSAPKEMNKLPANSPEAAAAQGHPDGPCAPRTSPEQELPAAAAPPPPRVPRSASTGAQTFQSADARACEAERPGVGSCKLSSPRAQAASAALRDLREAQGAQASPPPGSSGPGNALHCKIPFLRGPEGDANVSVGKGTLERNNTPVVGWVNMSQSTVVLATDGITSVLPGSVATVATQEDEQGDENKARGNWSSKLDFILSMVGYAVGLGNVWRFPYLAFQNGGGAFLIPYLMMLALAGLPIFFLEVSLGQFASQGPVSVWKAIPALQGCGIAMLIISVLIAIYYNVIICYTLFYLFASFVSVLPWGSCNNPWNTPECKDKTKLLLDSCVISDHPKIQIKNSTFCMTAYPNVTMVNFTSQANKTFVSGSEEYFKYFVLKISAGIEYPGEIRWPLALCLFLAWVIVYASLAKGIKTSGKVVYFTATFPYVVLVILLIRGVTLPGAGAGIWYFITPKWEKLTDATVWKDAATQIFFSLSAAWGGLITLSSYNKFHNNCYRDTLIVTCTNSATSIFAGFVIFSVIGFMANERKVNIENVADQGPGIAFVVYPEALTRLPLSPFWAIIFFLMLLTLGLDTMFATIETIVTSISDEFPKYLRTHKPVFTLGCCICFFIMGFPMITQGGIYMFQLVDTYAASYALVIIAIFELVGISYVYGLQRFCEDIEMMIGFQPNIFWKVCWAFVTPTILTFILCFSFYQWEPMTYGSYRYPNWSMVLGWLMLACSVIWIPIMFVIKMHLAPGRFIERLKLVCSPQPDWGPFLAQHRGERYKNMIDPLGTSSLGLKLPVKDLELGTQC

Compound | Ki [1] | inhibition at 1.5 µM (CYP2D6) | Ki [2] | Ki [3] | half-life [4] | IC50 [5] | IC50 [1]
CC(C)N1CCN(C2CCc3ccc(OCc4noc(-c5ccc(Cl)cc5)n4)cc32)CC1 (configuration not stated) | 394 nM | 43% | 31 nM | 98.1 nM | 13 min |  | 
CC1CC(N2CCN(C3CCc4ccc(OCc5noc(-c6ccc(Cl)cc6)n5)cc43)CC2)CC1C (configuration not stated) | 134 nM | 29% | 414 nM |  | 7 min |  | 
OCC1(N2CCN(C3CCc4ccc(OCc5noc(-c6ccccc6F)n5)cc43)CC2)CCCC1 (configuration not stated) | 61.4 nM | 85% |  |  | 14 min | 31.5 nM | 
OCC1CCCN(CCCC2CCCc3ccc(OCc4ccc(-c5ccccc5F)cn4)cc32)C1 (configuration not stated) | 11 nM | 30% |  | 410 nM | 24 min | 401 nM | 
CCN(Cc1cccc(OCc2noc(-c3ccccc3F)n2)c1)C1CCN(C2CC(C)C(C)C2)C1 (configuration not stated) | 85.3 nM | 84% |  | 222 nM | 26 min | 857 nM | 
CN1CCN(c2cccc3ccc(OCc4noc(-c5ccc(Cl)cc5)n4)cc23)CC1 | 500 nM | 75% | < 1 nM |  | 22 min |  | 
OCC1(N2CCN(C3CCc4ccc(OCc5noc(-c6ccc(Cl)cc6)n5)cc43)CC2)CCCC1 (configuration not stated) |  | 47% | 1490 nM |  |  |  | 
Fc1ccccc1-c1nc(COc2ccc3c(c2)C(N2CCN(C4CCCC4)CC2)CC3)no1 (configuration not stated) | 66.8 nM | 94% |  |  | 12 min | 531 nM | 
OCC1(NCCCC2CCc3ccc(OCc4noc(-c5ccc(Cl)cc5)n4)cc32)CCCC1 (configuration not stated) | 108 nM | 70% | > 300 nM | 525 nM | 12 min |  | 
OCC1CCCN(CCCC2CCCc3ccc(OCc4noc(-c5ccccc5F)n4)cc32)C1 (configuration not stated) | 10.2 nM | 43% |  | 1300 nM | 17 min | 385 nM | 
OCC1CCCN(CCCC2CCCc3ccc(OCc4noc(-c5ccc(Cl)cc5)n4)cc32)C1 (stereo in doubt; 8) | 15.9 nM | 96% | > 1000 nM | 271 nM | 22 min | 319 nM | 
OCC1CCCN(CCCC2CCCc3ccc(OCc4noc(-c5ccc(Cl)cc5)n4)cc32)C1 (stereo in doubt; 8A) |  |  |  | 381 nM |  |  | 38 nM
OCC1CCCN(CCCC2CCCc3ccc(OCc4noc(-c5ccc(Cl)cc5)n4)cc32)C1 (stereo in doubt; 8B) |  |  |  | 214 nM |  |  | 24 nM
OCC1CCCN(CCCC2CCCc3ccc(OCc4noc(-c5ccc(Cl)cc5)n4)cc32)C1 (stereo in doubt; 8C) |  |  |  | 219 nM |  |  | 31 nM
OCC1CCCN(CCCC2CCCc3ccc(OCc4noc(-c5ccc(Cl)cc5)n4)cc32)C1 (stereo in doubt; 8D) |  |  |  | 206 nM |  |  | 26 nM
